From patent US7273863B1, “Benzophenones as inhibitors of reverse transcriptase” (SmithKline Beecham Corporation, priority 1999, dated 2007)
Where two headings read alike, the source gives them in different places.

How the values were obtained:
NEV-R = experiment: MT4 cell assay, antiviral HIV activity (propidium iodide); assay type: cell-based; conditions: Human immunodeficiency virus 1, MT4, read-out: IC50 (nM) Range
[1] = test system: isogenic HIV-1 RT mutant virus V106I/Y181C; experiment: HeLa cell assay (HIV-LTR β-galactosidase reporter); assay type: cell-based; conditions: Human immunodeficiency virus 1, HeLa, read-out: IC50 (nM) Range
Description: (§1) The HeLa cell assay was performed according to a modification of Kimpton J. and Emerman M., Detection of replication-competent and pseudotyped human immunodeficiency virus with a sensitive cell line on the basis of activation of an integrated β-galactosidase gene, J. Virol. 66:2232-2239 (1992), in which HIV-1 infection is detected by the activation of an HIV-LTR driven β-galactosidase reporter that is integrated into the genome of a CD4^+ HeLa cell line. Quantitation of β-galactosidase is achieved by measuring the activation of a chemiluminescent substrate (Tropix). The concentration of each compound required to inhibit 50% (IC50) of the HIV-1 induced β-galactosidase signal, relative to untreated controls, was determined for each isogenic, recombinant virus.
(§2) HeLa-CD4-LTR-β-gal cells were obtained from the NIH AIDS Research and Reference Reagent Program. Cells were propagated in DMEM containing 10% fetal bovine serum, 0.2 mg/ml geneticin and 0.1 mg/ml hygromycin B. Cells were routinely split by trypsinization when confluency reached 80% (approximately every 2 to 3 days).
(§3) DNA encoding the HIV-1 reverse transcriptase was subcloned from a M13 phage into a general shuttle vector, pBCSK+, as a ˜1.65 kbp EcoRI/HindIII ended DNA fragment. The HIV DNA insert of the resulting plasmid, pRT2, was completely sequenced on both strands prior to use in site directed mutagenesis experiments. Specific amino acid replacements were made using Stratagene Quick Change reagents and mutagenic oligonucleotides from Oligos. Following mutagenesis, the entire mutant RT coding sequence was verified by sequencing both DNA strands.
(§4) Mutant HIV-1 strains were isolated by a modified Recombinant Virus Assay (Kellam P. and Larder B., Recombinant virus assay: a rapid, phenotypic assay for assessment of drug susceptibility of human immunodeficiency virus type 1 isolates, Antimicrobial Agents and Chemotherapy, 38:23-30, 1994). 1×10^7 Jurkat T-cells (maintained in RPMI containing 10% fetal bovine serum, split 1:5 every 5 to 6 days) were co-transfected with EcoRI/HindIII digested mutant RT plasmid and Bst EII-digested HIV-1HXB2ΔRT DNA in the presence of DMRIE-C transfection reagent (Gibco) according to supplier's recommended protocol. Each mutant RT coding sequence was crossed into the RT-deleted HIV-1 viral DNA backbone by in vivo homologous recombination. Transfected cell cultures were expanded and monitored until syncitia formation and CPE were extensive. Virus was harvested by clear spin of the culture supernatants and frozen at −80 C as primary stock. Recombinant progeny virus was sequenced in the RT region to confirm the mutant genotype. Virus stocks were further expanded by infection of Jurkat cells, harvested and stored as frozen aliquots. Stocks were titered in HeLa MAGI cells for assay.
(§5) The HIV-1HXB2 mutants were titered in the HeLa MAGI assay system to determine the relative light units (RLU) per ml, a measure of infectivity relevant for this assay system. Virus stocks were diluted in a 2-fold series into DMEM containing 10% fetal bovine serum plus 20 ug/ml DEAE-dextran and assayed as described in the Experimental Protocol section, below.
(§6) 96-well microtiter plate(s) (Costar #3598) were seeded with 3×10^3 HeLa-CD4-LTR-β-gal in 100 μl DMEM containing 10% fetal bovine serum. Plates were placed in a 37° C., 5% CO2 humidified incubator overnight. The following day, mutant virus stocks were thawed in a room temperature water bath and diluted into DMEM containing 10% fetal bovine serum and 20 μg/ml DEAE-dextran to achieve an input of 1500 to 2000 RLU/ml. All media was removed with an 8 channel manifold aspirator and 35 μl (50 to 70 total RLUs) of diluted virus was added to each well for virus adsorption. Plates were placed in a 37° C., 5% CO2 humidified incubator for 1.5 to 2 hours.
(§7) Compound titration plates were prepared at 1.35× final concentration during the virus adsorption period. […]

[2] = test system: isogenic HIV-1 RT mutant virus Y181C; experiment: HeLa cell assay (HIV-LTR β-galactosidase reporter); assay type: cell-based; conditions: Human immunodeficiency virus 1, HeLa, read-out: IC50 (nM) Range
Description: as §1, §2, §3, §4, §5, §6, §7

[3] = test system: isogenic HIV-1 RT mutant virus V106A/Y181C; experiment: HeLa cell assay (HIV-LTR β-galactosidase reporter); assay type: cell-based; conditions: Human immunodeficiency virus 1, HeLa, read-out: IC50 (nM) Range
Description: as §1, §2, §3, §4, §5, §6, §7

[4] = test system: isogenic HIV-1 RT mutant virus K103N; experiment: HeLa cell assay (HIV-LTR β-galactosidase reporter); assay type: cell-based; conditions: Human immunodeficiency virus 1, HeLa, read-out: IC50 (nM) Range
Description: as §1, §2, §3, §4, §5, §6, §7

[5] = test system: isogenic HIV-1 RT mutant virus V106I; experiment: HeLa cell assay (HIV-LTR β-galactosidase reporter); assay type: cell-based; conditions: Human immunodeficiency virus 1, HeLa, read-out: IC50 (nM) Range
Description: as §1, §2, §3, §4, §5, §6, §7

HIV-1 (strain IIIB) = experiment: MT4 cell assay, antiviral HIV activity (propidium iodide); assay type: cell-based; conditions: Human immunodeficiency virus 1, IIIB
Description: Antiviral HIV activity and compound-induced cytotoxicity were measured in parallel by means of a propidium iodide based procedure in the human T-cell lymphotropic virus transformed cell line MT4. Aliquots of the test compounds were serially diluted in medium (RPMI 1640, 10% fetal calf serum (FCS), and gentamycin) in 96-well plates (Costar 3598) using a Cetus Pro/Pette. Exponentially growing MT4 cells were harvested and centrifuged at 1000 rpm for 10 min in a Jouan centrifuge (model CR 4 12). Cell pellets were resuspended in fresh medium (RPMI 1640, 20% FCS, 20% IL-2, and gentamycin) to a density of 5×10^5 cells/ml. Cell aliquots were infected by the addition of HIV-1 (strain IIIB) diluted to give a viral multiplicity of infection of 100×TCID50. A similar cell aliquot was diluted with medium to provide a mock-infected control. Cell infection was allowed to proceed for 1 hr at 37° C. in a tissue culture incubator with humidified 5% CO2 atmosphere. After the 1 hr incubation the virus/cell suspensions were diluted 6-fold with fresh medium, and 125 μl of the cell suspension was added to each well of the plate containing pre-diluted compound. Plates were then placed in a tissue culture incubator with humidified 5% CO2 for 5 days. At the end of the incubation period, 27 μl of 5% Nonidet-40 was added to each well of the incubation plate. After thorough mixing with a Costar multitip pipetter, 60 μl of the mixture was transferred to filter-bottomed 96-well plates. The plates were analyzed in an automated assay instrument (Screen Machine, Idexx Laboratories). The control and standard used was 3′-azido-3′-deoxythymidine tested over a concentration range of 0.01 to 1 μM in every assay. […] The assay-makes use of a propidium iodide dye to estimate the DNA content of each well.
The antiviral effect of a test compound is reported as an IC50, i.e. the inhibitory concentration that would produce a 50% decrease in the HIV-induced cytopathic effect. This effect is measured by the amount of test compound required to restore 50% of the cell growth of HIV-infected MT4 cells, compared to uninfected MT4 cell controls. IC50 was calculated by RoboSage, Automated Curve Fitting Program, version 5.00, 10 Jul. 1995.
For each assay plate, the results (relative fluorescence units, rfU) of wells containing uninfected cells or infected cells with no compound were averaged, respectively. For measurements of compound-induced cytotoxicty, results from wells containing various compound concentrations and uninfected cells were compared to the average of uninfected cells without compound treatment. Percent of cells remaining is determined by the following formula: Percent of cells remaining=(compound−treated uninfected cells, rfU/untreated uninfected cells)×100.
A level of percent of cells remaining of 79% or less indicates a significant level of direct compound-induced cytotoxicity for the compound at that concentration. When this condition occurs the results from the compound-treated infected wells at this concentration are not included in the calculation of IC50.
For measurements of compound antiviral activity, results from wells containing various compound concentrations and infected cells are compared to the average of uninfected and infected cells without compound treatment. Percent inhibition of virus is determined by the following formula: Percent inhibition of virus=(1−((ave. untreated uninfected cells−treated infected cells)/(ave. untreated uninfected cells−ave. untreated infected cells)))×100

WTRVA = experiment: HeLa cell assay (HIV-LTR β-galactosidase reporter); assay type: cell-based, HIV-1; conditions: Human immunodeficiency virus 1, Virus Type WTRVA, read-out: IC50 (nM) Range
Description: as §1, §2, §3, §4, §5, §6, §7

[6] = test system: isogenic HIV-1 RT mutant virus K103N/Y181C; experiment: HeLa cell assay (HIV-LTR β-galactosidase reporter); assay type: cell-based; conditions: Human immunodeficiency virus 1, HeLa, read-out: IC50 (nM) Range
Description: as §1, §2, §3, §4, §5, §6, §7

HIV-2 = experiment: MT4 cell assay, antiviral HIV activity (propidium iodide); assay type: cell-based; conditions: Human immunodeficiency virus 2, Virus Type HIV-2, read-out: IC50 (nM) Range
[7] = test system: isogenic HIV-1 RT mutant virus V106A; experiment: HeLa cell assay (HIV-LTR β-galactosidase reporter); assay type: cell-based; conditions: Human immunodeficiency virus 1, HeLa, read-out: IC50 (nM) Range
Description: as §1, §2, §3, §4, §5, §6, §7

[8] = Virus Type HIV-1, Assay MT4, read-out: IC50 (nM) Range

SMILES | IC50 (NEV-R) | IC50 [2] | IC50 [4] | IC50 (HIV-1 (strain IIIB); [8]) | IC50 (WTRVA) | IC50 [6] | further results
Cc1cc(Cl)cc(C(=O)c2cc(Cl)ccc2OCC(=O)Nc2ccc(S(N)(=O)=O)cc2C)c1 [Compound 483] | < 10 nM | 101 to 1000 nM | 101 to 1000 nM | 11 to 100 nM | 11 to 100 nM | – | IC50 [1]: 11 to 100 nM; IC50 [3]: 101 to 1000 nM; IC50 [5]: < 10 nM
CS(=O)(=O)Nc1ccc(NC(=O)COc2ccc(Cl)cc2C(=O)c2ccccc2)cc1 [Compound 338] | 11 to 100 nM | 11 to 100 nM | 11 to 100 nM | < 10 nM | < 10 nM | 101 to 1000 nM | –
Cc1cc(N2CC[S+]([O-])CC2)ccc1NC(=O)COc1ccc(Cl)cc1C(=O)c1nccs1 [Compound 8] | 101 to 1000 nM | – | – | 11 to 100 nM | – | – | –
O=C(COc1ccc(Cl)cc1C(=O)c1nccs1)Nc1ccccc1 [Compound 1] | 1000 to 3000 nM | – | – | 101 to 1000 nM | – | – | –
O=C(c1cc(F)cc(F)c1)c1cc(Cl)ccc1OCC(=O)N1CCc2ccccc21 [Compound 276] | – | – | – | – | – | – | melting point: 158 to 160 °C
COc1ccc(NC(=O)COc2ccc(Cl)cc2C(=O)c2cc(F)cc(F)c2)cn1 [Compound 274] | – | – | – | – | – | – | melting point: 185 to 187 °C
O=C(COc1ccc(Cl)cc1C(=O)c1cc(F)cc(F)c1)Nc1ccc2c(c1)CS(=O)(=O)C2 [Compound 277] | – | – | – | – | – | – | melting point: 197 to 199 °C
O=C(COc1ccc(Cl)cc1C(=O)c1cc(F)cc(F)c1)Nc1ccc(Cl)nc1 [Compound 275] | – | – | – | – | – | – | melting point: 198 to 200 °C
Cc1cc(S(N)(=O)=O)ccc1NC(=O)COc1ccc(Cl)cc1C(=O)c1cc(Cl)cc(Cl)c1 [Compound 79] | < 10 nM | – | < 10 nM | < 10 nM | – | < 10 nM | IC50 (HIV-2): 1000 to 3000 nM
Cc1cn([C@H]2C[C@H](N=[N+]=[N-])[C@@H](CO)O2)c(=O)[nH]c1=O [3′-azido-3′-deoxythymidine, reference compound] | – | – | – | – | – | – | IC50 (HIV-1 (strain IIIB); control and standard tested in every MT4 assay, 0.01 to 1 μM, read-out: expected range of IC50 values): 40 to 120 nM
O=C(COc1ccc(Cl)cc1C(=O)c1cc2ccccc2o1)Nc1ccccc1 [Compound 9] | 101 to 1000 nM | – | – | 11 to 100 nM | – | – | –
Cc1cc(OCCCN2CCOCC2)ccc1NC(=O)COc1ccc(Cl)cc1C(=O)c1cccs1 [Compound 120] | 11 to 100 nM | 11 to 100 nM | 11 to 100 nM | 11 to 100 nM | 11 to 100 nM | 101 to 1000 nM | –
O=C(COc1ccc(Cl)cc1C(=O)c1ccccc1)Nc1ccc(-n2cncn2)cc1 [Compound 103] | 101 to 1000 nM | – | 11 to 100 nM | 11 to 100 nM | – | – | –
O=C(COc1ccc(Cl)cc1C(=O)c1nccs1)Nc1ccc2[nH]ncc2c1 [Compound 5] | 101 to 1000 nM | – | – | 11 to 100 nM | – | – | –
Cc1cc(N2CC[S+]([O-])CC2)ccc1NC(=O)COc1ccc(Cl)cc1C(=O)c1cccs1 [Compound 122] | 11 to 100 nM | 101 to 1000 nM | 11 to 100 nM | < 10 nM | 11 to 100 nM | 1000 to 3000 nM | –
Cc1cc(S(N)(=O)=O)ccc1NC(=O)COc1ccc(Cl)cc1C(=O)c1cc(C#N)cc(C#N)c1 [Compound 601] | < 10 nM | < 10 nM | < 10 nM | < 10 nM | < 10 nM | – | IC50 [7]: < 10 nM
O=C(COc1ccc(Cl)cc1C(=O)c1ccccc1)Nc1ccc2cn[nH]c2c1 [Compound 387] | 11 to 100 nM | 11 to 100 nM | < 10 nM | < 10 nM | < 10 nM | 11 to 100 nM | –
O=C(COc1ccc(Cl)cc1C(=O)c1ccco1)Nc1ccc2cn[nH]c2c1 [Compound 435] | 11 to 100 nM | 11 to 100 nM | < 10 nM | < 10 nM | < 10 nM | 101 to 1000 nM | –
